± gives the expanded uncertainty stated by the source.
Test: refractive index (Na D-line) (dimensionless); xn = mol fraction of the nth substance listed
Conditions: 100 kPa, Liquid, Standard Abbe refractometry

Molecule `NC1CCCCC1` [cyclohexylamine] + CO has a refractive index (293.15 K, x2 = 0) of 1.45934 ± 0.0044, a refractive index (293.15 K, x2 = 0.0702) of 1.45717 ± 0.0044 and a refractive index (293.15 K, x2 = 0.1177) of 1.45561 ± 0.0044. For the same molecule, the refractive index (293.15 K, x2 = 0.2006) was 1.45245 ± 0.0044, the refractive index (293.15 K, x2 = 0.3049) was 1.44774 ± 0.0044 and the refractive index (293.15 K, x2 = 0.4041) was 1.44199 ± 0.0043. For the same molecule, the refractive index (293.15 K, x2 = 0.4986) was 1.43478 ± 0.0043, the refractive index (293.15 K, x2 = 0.5392) was 1.43072 ± 0.0043 and the refractive index (293.15 K, x2 = 0.597) was 1.42424 ± 0.0043. The refractive index (293.15 K, x2 = 0.6609) was 1.41597 ± 0.0043, the refractive index (293.15 K, x2 = 0.7024) was 1.40945 ± 0.0043 and the refractive index (293.15 K, x2 = 0.7999) was 1.39047 ± 0.0042. For the same molecule, the refractive index (293.15 K, x2 = 0.8572) was 1.37655 ± 0.0042, the refractive index (293.15 K, x2 = 0.8985) was 1.36493 ± 0.0041 and the refractive index (293.15 K, x2 = 0.9032) was 1.36365 ± 0.0041. For the same molecule, the refractive index (293.15 K, x2 = 0.949) was 1.34836 ± 0.0041, the refractive index (298.15 K, x2 = 0) was 1.45663 ± 0.0044 and the refractive index (298.15 K, x2 = 0.0702) was 1.45462 ± 0.0044. It also gave a refractive index (298.15 K, x2 = 0.1177) of 1.45309 ± 0.0044, a refractive index (298.15 K, x2 = 0.2006) of 1.45014 ± 0.0044 and a refractive index (298.15 K, x2 = 0.3049) of 1.44542 ± 0.0043. It also gave a refractive index (298.15 K, x2 = 0.4041) of 1.43954 ± 0.0043, a refractive index (298.15 K, x2 = 0.4986) of 1.43243 ± 0.0043 and a refractive index (298.15 K, x2 = 0.5392) of 1.42852 ± 0.0043. It also gave a refractive index (298.15 K, x2 = 0.597) of 1.42256 ± 0.0043, a refractive index (298.15 K, x2 = 0.6609) of 1.41393 ± 0.0043 and a refractive index (298.15 K, x2 = 0.7024) of 1.40787 ± 0.0042. For the same molecule, the refractive index (298.15 K, x2 = 0.7999) was 1.38877 ± 0.0042, the refractive index (298.15 K, x2 = 0.8535) was 1.3759 ± 0.0042 and the refractive index (298.15 K, x2 = 0.8572) was 1.37494 ± 0.0042. For the same molecule, the refractive index (298.15 K, x2 = 0.8985) was 1.36313 ± 0.0041, the refractive index (298.15 K, x2 = 0.949) was 1.34625 ± 0.0041 and the refractive index (303.15 K, x2 = 0) was 1.45325 ± 0.0044. For the same molecule, the refractive index (303.15 K, x2 = 0.0702) was 1.45212 ± 0.0044, the refractive index (303.15 K, x2 = 0.1177) was 1.45064 ± 0.0044 and the refractive index (303.15 K, x2 = 0.2006) was 1.44761 ± 0.0044. The refractive index (303.15 K, x2 = 0.3049) was 1.4431 ± 0.0043, the refractive index (303.15 K, x2 = 0.4041) was 1.43715 ± 0.0043 and the refractive index (303.15 K, x2 = 0.4986) was 1.42999 ± 0.0043. For the same molecule, the refractive index (303.15 K, x2 = 0.5392) was 1.42613 ± 0.0043, the refractive index (303.15 K, x2 = 0.597) was 1.42012 ± 0.0043 and the refractive index (303.15 K, x2 = 0.6609) was 1.41198 ± 0.0043. It also gave a refractive index (303.15 K, x2 = 0.7024) of 1.40569 ± 0.0042, a refractive index (303.15 K, x2 = 0.746) of 1.39807 ± 0.0042 and a refractive index (303.15 K, x2 = 0.7999) of 1.38677 ± 0.0042. It also gave a refractive index (303.15 K, x2 = 0.8572) of 1.37247 ± 0.0042, a refractive index (303.15 K, x2 = 0.9032) of 1.35944 ± 0.0041 and a refractive index (303.15 K, x2 = 0.949) of 1.3444 ± 0.0041.
